Source: patent US12595258B2, “Heterocyclic derivatives, pharmaceutical compositions and their use in the treatment or amelioration of cancer” (TOLREMO THERAPEUTICS AG, priority 2022, dated 2026)

Assays:
[1] = test system: multiple myeloma cell line OPM-2; test: Multiple myeloma cellular efficacy (PrestoBlue cell proliferation/survival assay); type: cell-based; conditions: Homo sapiens, 96 h; OPM-2 cells, 4 days treatment, PrestoBlue signal relative to vehicle; read-out: Assay 1
Protocol: Multiple Myeloma Cellular Efficacy:
10000 OPM-2 (ACC50; DSMZ) were plated into wells of a 384 well plate (Greiner 781090). Cells were treated for 4 days with a dose range of compound or vehicle. At the end of the experiment cells were stained directly with PrestoBlue (ThermoFisher Scientific; A13262) for 2 hours at 37° C. in a humidified incubator according to manufactor's instruction. To assess the relative cell number the PrestoBlue signal was measured using either a TecanM1000Pro reader or a Tecan Sparks reader following the manufactor's instructions. Background (no cells) values were subtracted and set in relation to the vehicle control. To assess the EC50 of each compound the relative fluorescence value was plotted against the compound concentration after log transformation. Data were fitted in a nonlinear manner with a variable slope (four parameters) using graphpad prism software. Cellular efficacy of compounds was evaluated in the multiple myeloma cell line OPM-2 using the cell proliferation/survival assay PrestoBlue. EC50 values are classified as indicated below.

CBP bromodomain = target: T1, CBP bromodomain (Homo sapiens, UniProt Q92793); test: CBP bromodomain binding assay (TR-FRET); conditions: TR-FRET (Cayman kit 600850), 1 hour incubation at room temperature; read-out: Assay 2
T1 construct: purchased Cayman chemicals 600850
T1 sequence (Q92793 1085-1192 limits assumed): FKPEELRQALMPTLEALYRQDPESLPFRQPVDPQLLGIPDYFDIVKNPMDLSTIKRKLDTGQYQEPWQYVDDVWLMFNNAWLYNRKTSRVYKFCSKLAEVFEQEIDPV
Protocol: CBP Bromodomain Binding Assay (TR-FRET)
Compounds solutions of 10 mM in DMSO were pre-diluted in DSMO to 25× stock solutions in DMSO. These were then diluted down to 4× in assay buffer. A dilution series in assay buffer was performed keeping the DMSO concentration stable. 5 μl compound in assay buffer was transferred into the assay plate (provided by assay kit) and the TR-FRET assay Cayman chemicals; 600850) was performed using the provider's instructions. After 1 hour incubation at room temperature in the darks, assay plates were read in a Tecan M1000 plate reader or a Tecan Sparks reader using the TR-FRET mode (top read; excitation 340 nm bandwidth 20 nM; emission 620 nm bandwidth 7 nM; gain optimal determined for the first well, number of flashes: 5; flash frequency 100 Hz; integration time: 500 μs, lag time: 100 μs, room temperature). The TR-FRET ratio was calculated by dividing 670 nm emission by 620 nm emission. Values were log transformed and non-linear regression with variable slope (4 parameters) was used to fit values to a dose-response curve to evaluate EC50 values.

Row | SMILES | EC50 [1] [µM] | EC50 (CBP bromodomain) [µM]
1 | CC(=O)N1C[C@H](c2nc(Nc3cc(Cl)cc(-c4cn(C)nn4)c3)cc(-c3cnccn3)n2)CC[C@@H]1C [Compound 021, 1-((2S,5R)-5-(4-((3-chloro-5-(1-methyl-1H-1,2,3-triazol-4-yl)phenyl)amino)-6-(pyrazin-2-yl)pyrimidin-2-yl)-2-methylpiperidin-1-yl)ethan-1-one] | 0.005 | 
2 | CC(=O)N1C[C@H](c2nc(Nc3cc(C)cc(-c4cn(C)nn4)c3)cc(-c3cnccn3)n2)CC[C@@H]1C [Compound 014, 1-((2S,5R)-2-methyl-5-(4-((3-methyl-5-(1-methyl-1H-1,2,3-triazol-4-yl)phenyl)amino)-6-(pyrazin-2-yl)pyrimidin-2-yl)piperidin-1-yl)ethan-1-one] | 0.005 | 0.007
3 | CC(=O)N1C[C@H](c2nc(Nc3cc(F)cc(-c4cn[nH]c4)c3)cc(-c3cnccn3)n2)CC[C@@H]1C [Compound 002, 1-((2S,5R)-5-(4-((3-fluoro-5-(1H-pyrazol-4-yl)phenyl)amino)-6-(pyrazin-2-yl)pyrimidin-2-yl)-2-methylpiperidin-1-yl)ethan-1-one] | 0.025 | 0.023
4 | CC(=O)N1C[C@H](c2nc(Nc3cccc(-c4cn(C)nc4C)c3)cc(-c3cnccn3)n2)CC[C@@H]1C [Compound 004] |  | 0.128
5 | CC(=O)N1C[C@H](c2nc(Nc3cccc(-c4nnn(C)c4C)c3)cc(-c3cnccn3)n2)CC[C@@H]1C [Compound 015, 1-((2S,5R)-5-(4-((3-(1,5-dimethyl-1H-1,2,3-triazol-4-yl)phenyl)amino)-6-(pyrazin-2-yl)pyrimidin-2-yl)-2-methylpiperidin-1-yl)ethan-1-one] | 0.109 | 
6 | CC(=O)N1C[C@H](c2nc(Nc3ccc(C)c(-c4cn(C)nn4)c3)cc(-c3cnccn3)n2)CC[C@@H]1C [Compound 012, 1-((2S,5R)-2-methyl-5-(4-((4-methyl-3-(1-methyl-1H-1,2,3-triazol-4-yl)phenyl)amino)-6-(pyrazin-2-yl)pyrimidin-2-yl)piperidin-1-yl)ethan-1-one] | 0.261 | 
7 | CC(=O)N1C[C@H](c2nc(Nc3cc(F)cc(-c4c[nH]nn4)c3)cc(-c3cnccn3)n2)CC[C@@H]1C [Compound 009, 1-((2S,5R)-5-(4-((3-fluoro-5-(1H-1,2,3-triazol-4-yl)phenyl)amino)-6-(pyrazin-2-yl)pyrimidin-2-yl)-2-methylpiperidin-1-yl)ethan-1-one] | 0.037 | 
8 | CC(=O)N1C[C@H](c2nc(Nc3ccc(F)c(-c4cn(C)nn4)c3)cc(-c3cnccn3)n2)CC[C@@H]1C [Compound 018, 1-((2S,5R)-5-(4-((4-fluoro-3-(1-methyl-1H-1,2,3-triazol-4-yl)phenyl)amino)-6-(pyrazin-2-yl)pyrimidin-2-yl)-2-methylpiperidin-1-yl)ethan-1-one] | 0.063 | 0.022
9 | CC(=O)N1C[C@H](c2nc(Nc3cccc(-c4cn(C5COC5)nn4)c3)cc(-c3cnccn3)n2)CC[C@@H]1C [Compound 008] | 0.028 | 
10 | CC(=O)N1C[C@H](c2nc(Nc3cc(F)cc(-c4cn(C)cn4)c3)cc(-c3cnccn3)n2)CC[C@@H]1C [Compound 001, 1-((2S,5R)-5-(4-((3-fluoro-5-(1-methyl-1H-imidazol-4-yl)phenyl)amino)-6-(pyrazin-2-yl)pyrimidin-2-yl)-2-methylpiperidin-1-yl)ethan-1-one] | 0.001 | 0.007
11 | CC(=O)N1C[C@H](c2nc(Nc3cc(-c4cn(C)nn4)ccc3F)cc(-c3cnccn3)n2)CC[C@@H]1C [Compound 020] | 0.864 | 
12 | CC(=O)N1C[C@H](c2nc(Nc3cc(F)cc(-c4cn(C5COC5)nn4)c3)cc(-c3cnccn3)n2)CC[C@@H]1C [Compound 022, 1-((2S,5R)-5-(4-((3-fluoro-5-(1-(oxetan-3-yl)-1H-1,2,3-triazol-4-yl)phenyl)amino)-6-(pyrazin-2-yl)pyrimidin-2-yl)-2-methylpiperidin-1-yl)ethan-1-one] | 0.013 | 
13 | CC(=O)N1C[C@H](c2nc(Nc3cccc(-c4cn(C5COC5)nn4)c3F)cc(-c3cnccn3)n2)CC[C@@H]1C [Compound 023] | 0.007 | 0.065
14 | CC(=O)N1C[C@H](c2nc(Nc3cccc(-c4nn(C)nc4C)c3)cc(-c3cnccn3)n2)CC[C@@H]1C [Compound 016, 1-((2S,5R)-5-(4-((3-(2,5-dimethyl-2H-1,2,3-triazol-4-yl)phenyl)amino)-6-(pyrazin-2-yl)pyrimidin-2-yl)-2-methylpiperidin-1-yl)ethan-1-one] | 0.142 | 
15 | CC(=O)N1C[C@H](c2nc(Nc3cccc(-c4cn(C)nn4)c3F)cc(-c3cnccn3)n2)CC[C@@H]1C [Compound 019, 1-((2S,5R)-5-(4-((2-fluoro-3-(1-methyl-1H-1,2,3-triazol-4-yl)phenyl)amino)-6-(pyrazin-2-yl)pyrimidin-2-yl)-2-methylpiperidin-1-yl)ethan-1-one] | 0.001 | 0.006
16 | CC(=O)N1C[C@H](c2nc(Nc3cccc(-c4cn(C)nn4)c3C)cc(-c3cnccn3)n2)CC[C@@H]1C [Compound 013] | 0.032 | 
17 | CC(=O)N1C[C@H](c2nc(Nc3cccc(-c4cnn(C)c4C)c3)cc(-c3cnccn3)n2)CC[C@@H]1C [Compound 005] | 0.193 | 
18 | CC(=O)N1C[C@H](c2nc(Nc3cccc(-c4cn(C(C)C)nn4)c3)cc(-c3cnccn3)n2)CC[C@@H]1C [Compound 007, 1-((2S,5R)-5-(4-((3-(1-isopropyl-1H-1,2,3-triazol-4-yl)phenyl)amino)-6-(pyrazin-2-yl)pyrimidin-2-yl)-2-methylpiperidin-1-yl)ethan-1-one] | 0.05 | 
19 | CC(=O)N1C[C@H](c2nc(Nc3cc(Cl)cc(-c4c[nH]nn4)c3)cc(-c3cnccn3)n2)CC[C@@H]1C [Compound 010, 1-((2S,5R)-5-(4-((3-chloro-5-(1H-1,2,3-triazol-4-yl)phenyl)amino)-6-(pyrazin-2-yl)pyrimidin-2-yl)-2-methylpiperidin-1-yl)ethan-1-one] | 0.045 | 
20 | CCn1cc(-c2cccc(Nc3cc(-c4cnccn4)nc([C@@H]4CC[C@H](C)N(C(C)=O)C4)n3)c2)nn1 [Compound 011, 1-((2S,5R)-5-(4-((3-(1-ethyl-1H-1,2,3-triazol-4-yl)phenyl)amino)-6-(pyrazin-2-yl)pyrimidin-2-yl)-2-methylpiperidin-1-yl)ethan-1-one] | 0.006 | 
21 | CC(=O)N1C[C@H](c2nc(Nc3cccc(-c4cnnn4C)c3)cc(-c3cnccn3)n2)CC[C@@H]1C [Compound 017, 1-((2S,5R)-2-methyl-5-(4-((3-(1-methyl-1H-1,2,3-triazol-5-yl)phenyl)amino)-6-(pyrazin-2-yl)pyrimidin-2-yl)piperidin-1-yl)ethan-1-one] | 0.458 | 
22 | CC(=O)N1C[C@H](c2nc(Nc3cc(F)cc(-c4nnc(C)o4)c3)cc(-c3cnccn3)n2)CC[C@@H]1C [Compound 006, 1-((2S,5R)-5-(4-((3-fluoro-5-(5-methyl-1,3,4-oxadiazol-2-yl)phenyl)amino)-6-(pyrazin-2-yl)pyrimidin-2-yl)-2-methylpiperidin-1-yl)ethan-1-one] | 0.006 | 0.003
